Assay results taken from the METLIN SMRT retention time set (Domingo-Almenara et al. 2019).

Test: gradient 5% acetonitrile 3 min, to 50% in 2 min, to 85% in 15 min, held 3 min, 100 µL/min
Conditions: column: Zorbax Extend-C18 2.1 x 50 mm; eluents: water / acetonitrile, 0.1% formic acid
Outline: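 The system's dead and dwell volumes were 40 μL and 900 μL, with a Zorbax Extend-C18 column (2.1 × 50 mm, 1.8 μm) run at 100 μL/min in water and acetonitrile containing 0.1% formic acid each. Pure standards were analyzed in mixtures of ~100 molecules by HPLC–quadrupole time-of-flight mass spectrometry in positive and negative ionization mode. Retention time was assigned from computationally picked, manually inspected adduct peaks.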

RP-LC retention time [s]	Structure (SMILES)
1190	CSc1cnc(Nc2nc(-c3ccc(Br)cc3)cs2)nc1
1050	CC(C)c1ccc(S(=O)(=O)N2CCC(C)(C(=O)NCc3ccc(F)cc3)CC2)cc1
852	CCOC(=O)c1[nH]c(C)c(CN(CC2CCCO2)C(=O)c2ccc(OC)cc2)c1C (centres undefined)
701	Cc1ccc(CNC(=O)C2CCCN(c3cc(=O)n(C)c(=O)n3C)C2)cc1 (centres undefined)
870	Cc1c(S(=O)(=O)Nc2ccccc2)c(C)n(C)c1-c1nnc(C2CCC2)o1
898	Cc1ccccc1S(=O)(=O)N1CCC(C(=O)NCc2csc(-c3cccs3)n2)CC1
668	COc1cccc(OC)c1OCC(O)CN1CCN(c2ccccc2)CC1 (centres undefined)
722	CCSc1ccc(-n2ncc(C(=O)NC3CC3)c2C)nn1
536	O=C(CCC1CCN(c2cc(NC3CC3)ncn2)CC1)N1CCN(c2ccccn2)CC1
617	O=C(Nc1nnc(SCc2ccccn2)s1)C1CC(=O)N(c2ccc(F)cc2)C1 (centres undefined)
847	O=C(NC(c1ccccc1)c1nnc(N2CCCCC2)o1)c1ccc2c(c1)OCO2 (centres undefined)
754	O=C(NCc1ccccc1)C1CCCN(c2ncnc3c2oc2ccccc23)C1 (centres undefined)
835	O=C(Nc1cc(Cl)ccc1F)C1CC(=O)N(c2ccc3c(c2)CCN3C(=O)C2CC2)C1 (centres undefined)
788	CCN1c2ccc(C)cc2C(=O)NC12CCN(C(=O)c1ccc3c(c1)OCO3)CC2
994	CCOc1ccccc1NC(=O)C1CCN(S(C)(=O)=O)c2ccccc2O1 (centres undefined)
738	O=C(NCc1ccccc1)N1CCN(c2ncccc2-c2nnc(C3CC3)o2)CC1
742	CSc1cccc(NC(=O)Cn2nc(C(=O)N3CCOCC3)cc2C2CC2)c1
789	O=C(Cn1ncc2c(c1=O)N(CC1CC1)C(=O)CS2)NCc1ccccc1Cl
726	CC1CCN(C(=O)CC2Sc3ncccc3N(C)C2=O)CC1 (centres undefined)
852	O=C([C@@H]1C[C@H](F)CN1S(=O)(=O)c1ccc(Cl)cc1)N1CCCCC1
812	O=C([C@@H]1C[C@H](F)CN1S(=O)(=O)c1ccc(F)cc1F)N1CCCCC1
737	CCN1c2ccccc2C(=O)NC12CCN(C(=O)Nc1ccc3c(c1)OCCO3)CC2

RP-LC retention time [s]	Structure (SMILES)
749	CC(=O)c1ccc(NC(=O)CCc2c(C)nn(-c3cc(N(C)C)ncn3)c2C)cc1
797	COc1ccccc1-c1nc(-c2ccc3c(c2)ncn3CCN2CCCC2)no1
816	O=c1n(Cc2ccccc2)nc2n1CCN(S(=O)(=O)Cc1ccccc1)CC2
1130	Cc1ccsc1C(=O)Nc1cnc(-c2cccc(Cl)c2)nc1
614	COCCNC(=O)CC1CCN(C(=O)c2[nH]c(C)c(C(=O)OC)c2C)CC1
762	O=C(NCCc1ccco1)C1CCN(Cc2cc3ccccc3n2Cc2ccccc2)CC1
538	CCCNc1cc(N2CCC(CCC(=O)N(CC)CC)CC2)ncn1
861	Cc1ccc(C)c(S(=O)(=O)N2CCC(N3CCN(Cc4ccccc4)C(=O)C3=O)CC2)c1
771	O=C(Cc1cccc(F)c1)NC(c1ccccc1)c1nnc(N2CCCC2)o1 (centres undefined)
975	CC(=O)N1c2ccc(S(=O)(=O)N3CCCCCC3)cc2CC1C(=O)NCCCc1ccccc1 (centres undefined)
753	Cc1ccc(NC(=O)c2nc(C)oc2C)c(C)c1
862	CC(C)NC(=O)c1ccc(OCC2CCCN2C(=O)c2ccc(F)c(F)c2)cc1 (centres undefined)
654	CN1CCn2ccnc2C12CCN(S(=O)(=O)c1ccccc1C(F)(F)F)CC2
708	Cc1ccc(CC(=O)Nc2ccc3c(c2)CCC(=O)N3)cc1
1210	Cc1cccn2c(NCc3ccccc3)c(-c3ccccc3OC(=O)C(C)Cl)nc12 (centres undefined)
699	CC(C)n1c(=O)c(NCc2ccccc2Br)nc2ccncc21
834	COc1cc(-c2nc(C3CC(=O)N(c4ccc(C)cc4)C3)no2)cc(OC)c1OC (centres undefined)
705	Cc1ccc(C2NC(=O)c3ccccc3N2)s1 (centres undefined)
708	O=C(NCc1ccco1)C1CCN(c2ccc3nnc(-c4ccccc4F)n3n2)CC1
710	CCN(CC)C(=O)c1ccc(-c2nc3cc(NS(=O)(=O)c4ccc(F)cc4F)ccc3n2C)cc1
1080	COc1ccc(Cl)cc1NC(=O)CC1CCCCN1S(=O)(=O)c1ccc(F)cc1 (centres undefined)
610	Cc1ccc(-c2cc(C(=O)NCCCN3CCN(C)CC3)c(C)[nH]2)cc1C

RP-LC retention time [s]	Structure (SMILES)
624	COc1ccc(CN(C)Cc2cc(=O)n3cc(Cl)ccc3n2)cc1
1170	COc1cccc(CNC(=O)Nc2ccc(-c3nc(-c4ccc(C)cc4C)co3)cc2)c1
754	COC(=O)c1ccc2c(=O)n(-c3ccc(Cl)cc3)c(N3CCC(C(N)=O)CC3)nc2c1
622	COCC(=O)NC/C=C/c1ccc2ncnc(Nc3ccc(Oc4ccc(C)nc4)c(C)c3)c2c1
554	CCN1CCCC1CNC(=O)Cn1c2ccccc2c2cnn(C)c(=O)c21 (centres undefined)
656	CCN(CC)CCNC(=O)c1cc(S(=O)(=O)N2CCCCCC2)ccc1Cl
680	Cc1oc(CNC(=O)Nc2ccccc2Cl)nc1C(=O)N1CCCC1
708	Cc1noc(C2CCCCCN2C(=O)NC(C)C)n1 (centres undefined)
590	CC1CCCN(c2nc(C(=O)NC3CC3)cs2)C1 (centres undefined)
724	COC(=O)C1CCN(S(=O)(=O)c2cc3c4c(c2)CCC(=O)N4CCC3)CC1
602	O=C(NC1CCCC1)N1CCCCC1c1nncn1-c1ccccc1 (centres undefined)
1070	COc1ccc(C(=O)N2CCc3cc(-c4csc(C5CC5)n4)ccc32)cn1
1030	O=C(NCc1cc(F)cc(F)c1)c1sc2ncccc2c1-n1cccc1
716	Cc1nnc(N2CCCC(C(=O)NCc3cccc(F)c3)C2)c2nn(-c3ccccc3)c(C)c12 (centres undefined)
742	Cc1nnc(N2CCCC(C(=O)NCc3cccs3)C2)c2nn(-c3ccc(Cl)cc3)c(C)c12 (centres undefined)
586	CN(C)c1ccc(CNC(=O)Cn2cnc3nc4c(cc3c2=O)CCCC4)cc1
715	O=C(CCS(=O)(=O)c1ccccc1)NCCOc1ccc(-c2ccc(F)cc2)nn1
732	Cc1ccc(CNC(=O)C2CC(=O)N(c3ccc4oc(C)nc4c3)C2)cc1 (centres undefined)
649	O=C(NCc1ccnc(N2CCSCC2)c1)Nc1ccc(Cl)cc1
897	Cc1ccc(NC(=O)C2CCN(S(=O)(=O)c3ccc4[nH]c5c(c4c3)CCCCC5)CC2)nc1
717	Cc1cccc(N2CCN(C(=O)CCC3CCN(c4cc(NC5CC5)ncn4)CC3)CC2)c1
1130	CC12CCC(C1)C(C)(C)C2OC(=O)c1ccccc1C(=O)O (centres undefined)

RP-LC retention time [s]	Structure (SMILES)
655	O=C(Nc1nnc(C2CCCO2)o1)c1cc2ccccc2o1 (centres undefined)
847	Cc1ccc(CCC(=O)Nc2cccc3ccccc23)o1
1100	COc1ccc(-n2nnc3c(SCc4cccc([N+](=O)[O-])c4)ncnc32)cc1
810	CC(C(=O)NCCc1ccccc1)n1cnc2nc(N3CCCCC3)ncc2c1=O (centres undefined)
990	O=C(Cn1nc2c(Oc3ccc(Cl)cc3)nccn2c1=O)Nc1ccc(F)c(Cl)c1
634	O=C(CCc1nnn2c1CN(C(=O)NC1CCCCC1)CC2)N1CCOCC1
860	CC1(C)CC(=O)N(CC(=O)Nc2c(F)c(F)c(F)c(F)c2F)c2ccccc2S1(=O)=O
1170	CCN1C(=O)COc2ccc(-c3noc(-c4cccc(F)c4)n3)cc21
559	CN(C)c1ccc(C(CNC(=O)CN2C(=O)c3ccccc3C2=O)N2CCCC2)cc1 (centres undefined)
945	Cc1ccc(S(=O)(=O)Nc2ccc3c(c2)CCC(=O)N3CC(C)C)c(C)c1
713	COc1cc(CNC(=O)COc2ccc(NC(=O)C3CC3)cn2)cc(OC)c1
741	NC(=O)C1CCN(C(=O)c2ccc3c(c2)CCCN3S(=O)(=O)c2ccc(Cl)cc2)CC1
625	CCOCC(=O)N1CCCC(c2nc(CNC(=O)C(C)C)cs2)C1 (centres undefined)
625	CCN1CCC(CCNC(=O)C2CN(C(=O)c3cccs3)CC23CCCCC3)CC1 (centres undefined)
824	COC(=O)c1c(NCCc2c[nH]c3ccccc23)c2cccc(Cl)c2[nH]c1=O
659	Cc1ccc(NC(=O)CSc2ccc(N3CCCC(C(=O)NC4CC4)C3)nn2)cc1 (centres undefined)
858	CCc1cccc(N2C=C(C(=O)N3CCOCC3)S(=O)(=O)c3ccc(F)cc32)c1
772	Cc1ccc(C)c(S(=O)(=O)N2CCC3(CC2)NCCN=C3NCc2ccc(F)cc2)c1
941	Cc1ccc(-c2ncc(NC(=O)C3CCC3)cn2)cc1
656	CCCN1C(=O)c2[nH]nc(-c3ccc(OC)cc3)c2C1c1cccnc1 (centres undefined)
1110	O=C(Cc1ccc(Cl)cc1)NCc1nc(-c2ccc3oc(-c4ccccc4)nc3c2)no1
679	COCCn1ccc2nc(C)c(C(=O)Nc3ccc4c(c3)OCCO4)cc2c1=O

Structure (SMILES)	RP-LC retention time [s]
COc1cccc(Cn2nnc(C(=O)O)c2C)c1	666
